Reference: publication PMC7238388, “Biological Evaluation of Newly Synthesized Biaryl Guanidine Derivatives to Arrest β-Secretase Enzymatic Activity Involved in Alzheimer's Disease” (BioMed Research International, 2020)

Molecular target: T1, BACE1 enzyme (Homo sapiens, UniProt P56817)
T1 construct: purchased Sigma-Aldrich CS0010
Assay: BACE1 FRET-based inhibitory activity assay (Sigma-Aldrich kit CS0010)
Assay type: biochemical
Conditions: not given
Method: BACE1 inhibitory activity was carried out by adopting the procedures described by the Sigma-Aldrich FRET-based assay activity kit (product # CS0010).
Briefly, the assay was carried out in a fixed volume of 100 μl with the BACE1 substrate (20 μl, 50 μM), assay buffer (78 μl/78-X μl, pH 4.5), test sample(s) (X μl, 100 μM), and BACE1 enzyme (2 μl, ~0.3 unit/μl) incubated at 37°C for 75 min in 96-well microplate reaction mixture. The baseline fluorescence (null time) signal was noticed (at 320 nm) immediately after the addition of BACE1 enzymes while emission signals were monitored at 405 nm at 25°C. Both the enzyme and the substrate were prepared in the buffer while tested samples dissolved primarily in DMSO (5%) subsequently in serially diluted buffer solution in a desired volume of 2 μl, 3 μl, and 5 μl having 200 pmol, 300 pmol, and 500 pmol concentration, respectively. A standard curve was prepared between fluorescent unit (FU) and standard solution (100 μM, 100-500 pmol, and 1-5 μl) to find out 50% BACE1 cleaving activity. The sample blank (buffer with substrate) was treated as the negative control while the positive control was the solution of the buffer with substrate and enzyme mixture (http://www.sigmaaldrich.com). Finally, IC50 of the intended compounds were calculated via GraphPad Prism v8 software.

T1 sequence (P56817 46-501): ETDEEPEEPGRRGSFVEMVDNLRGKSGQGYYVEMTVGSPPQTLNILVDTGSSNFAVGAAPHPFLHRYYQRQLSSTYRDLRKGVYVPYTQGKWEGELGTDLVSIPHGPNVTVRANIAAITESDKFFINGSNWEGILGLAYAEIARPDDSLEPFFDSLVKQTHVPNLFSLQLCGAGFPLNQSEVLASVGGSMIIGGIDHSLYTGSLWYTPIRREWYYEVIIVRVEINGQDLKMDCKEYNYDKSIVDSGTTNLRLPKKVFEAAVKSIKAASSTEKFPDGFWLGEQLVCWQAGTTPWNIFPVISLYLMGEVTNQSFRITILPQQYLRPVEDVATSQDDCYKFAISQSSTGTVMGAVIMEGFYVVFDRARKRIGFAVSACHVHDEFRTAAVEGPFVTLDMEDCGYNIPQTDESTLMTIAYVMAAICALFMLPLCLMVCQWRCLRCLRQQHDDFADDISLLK

Structure (SMILES) | IC50
N=C(Nc1ccccc1[N+](=O)[O-])Nc1ccccc1[N+](=O)[O-] [Compound 3, 1,3-bis(2-nitrophenyl)guanidine] | 259 µM

Same assay, conditions: BACE1 FRET assay, pH 4.5, 37°C, 75 min; read-out: IC50

Structure (SMILES) | IC50
N=C(Nc1ccccc1F)Nc1ccccc1F [Compound 1, 1,3-bis(2-fluorophenyl)guanidine] | 85 µM
N=C(Nc1ccc2ncccc2c1)Nc1ccc2ncccc2c1 [Compound 5, 1,3-di(quinolin-6-yl)guanidine] | 0.091 µM
N=C(Nc1ccc2ccccc2c1)Nc1ccc2ccccc2c1 [Compound 7, 1,3-di(naphthalen-2-yl)guanidine] | 159 µM
N=C(Nc1ccc(Cl)cc1F)Nc1ccc(Cl)cc1F [Compound 11, 1,3-bis(4-chloro-2-fluorophenyl)guanidine] | 172 µM
N=C(Nc1ccc(Br)cc1)Nc1ccc(Br)cc1 [Compound 10, 1,3-bis(4-bromophenyl)guanidine] | 321 µM
N=C(Nc1ccc(F)cc1)Nc1ccc(F)cc1 [Compound 12, 1,3-bis(4-fluorophenyl)guanidine] | 103 µM
N=C(Nc1ccc(Br)c2ccccc12)Nc1ccc(Br)c2ccccc12 [Compound 2, 1,3-bis(4-bromonaphthalen-1-yl)guanidine] | 235 µM
N=C(Nc1ccccn1)Nc1ccccn1 [Compound 4, 1,3-di(pyridin-2-yl)guanidine] | 9 µM
N=C(Nc1ccc(F)c(F)c1)Nc1ccc(F)c(F)c1 [Compound 13, 1,3-bis(3,4-difluorophenyl)guanidine] | 71 µM
N=C(Nc1cc(C(F)(F)F)cc(C(F)(F)F)c1)Nc1cc(C(F)(F)F)cc(C(F)(F)F)c1 [Compound 8, 1,3-bis(3,5-bis(trifluoromethyl)phenyl)guanidine] | 229 µM
N=C(Nc1cc(F)c2ccccc2c1)Nc1cc(F)c2ccccc2c1 [Compound 6, 1,3-bis(4-fluoronaphthalen-2-yl)guanidine] | 0.102 µM

Same assay, conditions: FRET assay; at 500 pmol

Structure (SMILES) | BACE1 inhibition
N=C(Nc1ccc(Br)cc1)Nc1ccc(Br)cc1 [Compound 10, 1,3-bis(4-bromophenyl)guanidine] | 35%

System: AlCl3-induced neurotoxic mice
Assay: Morris water maze test in AlCl3-induced neurotoxicity mice
Assay type: in vivo, BALB/c mice
Conditions: day 5; AlCl3-induced mice treated with compound; AlCl3 group 50.60 ± 3.70, control 20.20 ± 2.01; p < 0.05; in s (unit assumed)
Method: (§1) Male BALB/c mice (3.5 to 5.5 months of age) were purchased from National Institute of Health (NIH) Islamabad, Pakistan. All experiments were performed by following the rules and regulations in accordance with the Helsinki Declaration after getting permission from the Departmental Review Committee (Ref. # PHM.Eth/CS-M01/18-001 dated 05/2018). Animals were kept in standard cages and provided food, water, and cleanliness in accordance with the documented protocols. Moreover, they were categorized into nine groups (n = 10) for experimental purposes.
(§2) The control group of mice was treated with drinking water having aluminum chloride (17 mg/kg) and tape water for a period of five weeks. Synthesized ligands (20-55 mg/kg) were administered to neutralize the AlCl3 effects and to design treated mouse groups. All the behavioral tests were performed on days 28 to 34 (08:30 am to 4:30 pm at 25 ± 2°C). Animals were shifted 20 minutes prior to the experimentation room to get accustomed with the test environment. Trials were recorded via videocam, and results were obtained to reveal the final conclusions.
To evaluate 3D spatial recalling memory of the animals under observations, an authentic and sensitive assay “Morris water maze test” was carried out.
The apparatus used for this test has a round pool with a 120 cm diameter and a 60 cm of depth. The pool is divided into 4 hypothetical quadrants North, West, South, and East. The experiment began on day 28, and 5 trials were executed each day. The mouse was given 1 min to find out the hidden platform with a 10 min interval between the two successive trials. The usual time essential for a mouse to reach at the platform was recorded, and an average of 5 trials was presumed as the escape latency of the animal for that day. On the 32nd day of intervention, a probe test was executed when there was no platform, with a different release position. The spatial memory of the mouse was estimated by computing the time spent by the mouse in the quadrant in which the platform was formerly located. […]

Structure (SMILES) | escape latency
N=C(Nc1cnc(F)c(F)c1)Nc1cnc(F)c(F)c1 [Compound 9, 1,3-bis(5,6-difluoropyridin-3-yl)guanidine] | 27.72 ± 2.60

Same assay, conditions: probe test; AD model 6.10 ± 1.0, control 19.80 ± 1.90

Structure (SMILES) | number of crossings of the targeted quadrant
N=C(Nc1cnc(F)c(F)c1)Nc1cnc(F)c(F)c1 [Compound 9, 1,3-bis(5,6-difluoropyridin-3-yl)guanidine] | 16.70 ± 1.07

Same assay, conditions: probe test; per hundred of total time (Figure 2c); AD-induced 23.6 ± 2.01, control 49.60 ± 2.35

Structure (SMILES) | time spent in exploration of the targeted quadrant
N=C(Nc1cnc(F)c(F)c1)Nc1cnc(F)c(F)c1 [Compound 9, 1,3-bis(5,6-difluoropyridin-3-yl)guanidine] | 41.07 ± 2.5

System: AlCl3-induced mouse models
Assay: Novel object recognition memory test in AlCl3-induced AD model mice
Assay type: in vivo, BALB/c mice
Conditions: AD model treated with compound; control 64.44 ± 2.50 s, AD model 31.80 ± 2.00 s; p < 0.05
Method: as §1, §2
The novel object recognition memory test is an additional procedure to describe and evaluate the memory of the rodents. The entire methodology was performed in a specific designed box of dimensions about 25 cm × 25 cm × 25 cm at daytime (25 ± 2°C). […]

Structure (SMILES) | exploration time
N=C(Nc1cnc(F)c(F)c1)Nc1cnc(F)c(F)c1 [Compound 9, 1,3-bis(5,6-difluoropyridin-3-yl)guanidine] | 53.80 ± 2.15 s

System: not given
Assay: not given
Conditions: not given

Structure (SMILES) | melting point
N=C(Nc1ccccc1F)Nc1ccccc1F [Compound 1, 1,3-bis(2-fluorophenyl)guanidine] | 130 to 132 °C
N=C(Nc1ccc2ncccc2c1)Nc1ccc2ncccc2c1 [Compound 5, 1,3-di(quinolin-6-yl)guanidine] | 133 to 134 °C
N=C(Nc1ccc2ccccc2c1)Nc1ccc2ccccc2c1 [Compound 7, 1,3-di(naphthalen-2-yl)guanidine] | 146 to 148 °C
N=C(Nc1ccc(Cl)cc1F)Nc1ccc(Cl)cc1F [Compound 11, 1,3-bis(4-chloro-2-fluorophenyl)guanidine] | 160 to 162 °C
N=C(Nc1ccc(Br)cc1)Nc1ccc(Br)cc1 [Compound 10, 1,3-bis(4-bromophenyl)guanidine] | 250 to 252 °C
N=C(Nc1ccc(F)cc1)Nc1ccc(F)cc1 [Compound 12, 1,3-bis(4-fluorophenyl)guanidine] | 146 to 148 °C
N=C(Nc1ccc(Br)c2ccccc12)Nc1ccc(Br)c2ccccc12 [Compound 2, 1,3-bis(4-bromonaphthalen-1-yl)guanidine] | 128 to 130 °C
N=C(Nc1ccccn1)Nc1ccccn1 [Compound 4, 1,3-di(pyridin-2-yl)guanidine] | 140 to 142 °C
N=C(Nc1ccccc1[N+](=O)[O-])Nc1ccccc1[N+](=O)[O-] [Compound 3, 1,3-bis(2-nitrophenyl)guanidine] | 136 to 138 °C
N=C(Nc1cc(C(F)(F)F)cc(C(F)(F)F)c1)Nc1cc(C(F)(F)F)cc(C(F)(F)F)c1 [Compound 8, 1,3-bis(3,5-bis(trifluoromethyl)phenyl)guanidine] | 76 to 78 °C
N=C(Nc1cc(F)c2ccccc2c1)Nc1cc(F)c2ccccc2c1 [Compound 6, 1,3-bis(4-fluoronaphthalen-2-yl)guanidine] | 126 to 128 °C
N=C(Nc1cnc(F)c(F)c1)Nc1cnc(F)c(F)c1 [Compound 9, 1,3-bis(5,6-difluoropyridin-3-yl)guanidine] | 128 to 130 °C
